Laboratory results taken from ChEMBL document CHEMBL1201862, “PubChem BioAssay data set” (2004).
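Protocol summary: plate cells (96-well), add compound at 5 concentrations, incubate 48 h, interpolate endpoints linearly. Here, GI50 denotes the concentration required for 50% inhibition of growth.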 The source made the active and inactive calls. Cut-off read from the data, not from the text of the source: active = GI50 up to about 1.1 µM and inactive = higher.

How the values were obtained:
Test in all cases: inhibition of tumour cell growth, NCI panel, 48 h
COLO 205 = test system: COLO 205
EKVX = test system: EKVX
HCC 2998 = test system: HCC 2998
HOP-92 = test system: HOP-92
HT-29 = test system: HT-29
MDA-MB-435 = test system: MDA-MB-435
Malme-3M = test system: Malme-3M
NCI-H23 = test system: NCI-H23
OVCAR-5 = test system: OVCAR-5
OVCAR-8 = test system: OVCAR-8
RPMI-8226 = test system: RPMI-8226
SK-MEL-28 = test system: SK-MEL-28
SK-MEL-2 = test system: SK-MEL-2
SNB-19 = test system: SNB-19
SW-620 = test system: SW-620
TK-10 = test system: TK-10
U-251 = test system: U-251
NCI-H460 = test system: NCI-H460
K562 = test system: K562
MDA-N = test system: MDA-N

| Compound | GI50 (COLO 205) | GI50 (EKVX) | GI50 (HCC 2998) | GI50 (HOP-92) | GI50 (HT-29) | GI50 (MDA-MB-435) | GI50 (Malme-3M) | GI50 (NCI-H23) | GI50 (OVCAR-5) | GI50 (OVCAR-8) | GI50 (RPMI-8226) | GI50 (SK-MEL-28) | GI50 (SK-MEL-2) | GI50 (SNB-19) | GI50 (SW-620) | GI50 (TK-10) | GI50 (U-251) | GI50 (NCI-H460) | GI50 (K562) | GI50 (MDA-N) |
| --- | --- | --- | --- | --- | --- | --- | --- | --- | --- | --- | --- | --- | --- | --- | --- | --- | --- | --- | --- | --- |
| COc1ccc(/C=c2\c(=O)[nH]c3nc4ccccc4c(=O)n23)cc1 | 60.8 µM (inactive) | 54.1 µM (inactive) | 80.5 µM (inactive) | 64.7 µM (inactive) | 69.8 µM (inactive) | 51.2 µM (inactive) | 58.5 µM (inactive) | 73.8 µM (inactive) | > 100 µM (inactive) | > 100 µM (inactive) | 58.3 µM (inactive) | 42.5 µM (inactive) | > 100 µM (inactive) | > 100 µM (inactive) | 36.1 µM (inactive) | > 100 µM (inactive) | > 100 µM (inactive) |  |  |  |
| CC1(C)O[C@@H]([C@H](O)CO)[C@H](O)[C@@H](C2SCCCS2)O1 | > 100 µM (inactive) | > 100 µM (inactive) | > 100 µM (inactive) | 34.4 µM (inactive) | > 100 µM (inactive) | > 100 µM (inactive) |  | > 100 µM (inactive) | > 100 µM (inactive) | > 100 µM (inactive) | 50.6 µM (inactive) | > 100 µM (inactive) | > 100 µM (inactive) | > 100 µM (inactive) | > 100 µM (inactive) | > 100 µM (inactive) | > 100 µM (inactive) | > 100 µM (inactive) |  |  |
| CSc1nc2[nH]c(=O)c(C)nc2c(=O)[nH]1 | > 100 µM (inactive) | > 100 µM (inactive) | > 100 µM (inactive) | > 100 µM (inactive) | > 100 µM (inactive) |  | > 100 µM (inactive) | > 100 µM (inactive) | > 100 µM (inactive) | > 100 µM (inactive) | > 100 µM (inactive) | > 100 µM (inactive) | > 100 µM (inactive) | > 100 µM (inactive) | > 100 µM (inactive) | > 100 µM (inactive) | > 100 µM (inactive) | > 100 µM (inactive) | > 100 µM (inactive) |  |
| CNC(=O)N1CCN(C(=O)NC)CCN(C(=O)NC)CC1 | > 100 µM (inactive) | > 100 µM (inactive) | > 100 µM (inactive) | > 100 µM (inactive) | > 100 µM (inactive) |  | > 100 µM (inactive) | > 100 µM (inactive) | > 100 µM (inactive) | > 100 µM (inactive) | > 100 µM (inactive) | > 100 µM (inactive) | > 100 µM (inactive) | > 100 µM (inactive) | > 100 µM (inactive) | > 100 µM (inactive) | > 100 µM (inactive) | > 100 µM (inactive) | > 100 µM (inactive) | > 100 µM (inactive) |
| C/C(=N\NC(=S)N/N=C(\C)c1ccccn1)c1ccccn1 | 3 µM (inactive) | 1.12 µM (inactive) |  | 2.82 µM (inactive) | 0.575 µM (active) | 6.9 µM (inactive) | 2.38 µM (inactive) | 4.6 µM (inactive) | 0.675 µM (active) | 1.05 µM (active) | 2.54 µM (inactive) | 8.36 µM (inactive) |  | 3.56 µM (inactive) | 1.75 µM (inactive) | > 100 µM (inactive) | 0.771 µM (active) | 0.533 µM (active) | 1.92 µM (inactive) | 5.4 µM (inactive) |
| CC(=O)Nc1ccc(/N=N\c2c(O)c(S(=O)(=O)O)cc3cc(S(=O)(=O)O)ccc23)cc1 | > 100 µM (inactive) | > 100 µM (inactive) |  | > 100 µM (inactive) | > 100 µM (inactive) | > 100 µM (inactive) | > 100 µM (inactive) | > 100 µM (inactive) | > 100 µM (inactive) | > 100 µM (inactive) | > 100 µM (inactive) | > 100 µM (inactive) | > 100 µM (inactive) | > 100 µM (inactive) | > 100 µM (inactive) | > 100 µM (inactive) | > 100 µM (inactive) |  | > 100 µM (inactive) | > 100 µM (inactive) |
| C1=C(CC2=C[P+](c3ccccc3)(c3ccccc3)C=C(c3ccccc3)O2)OC(c2ccccc2)=C[P+]1(c1ccccc1)c1ccccc1 | 0.162 µM (active) | 0.44 µM (active) |  | 0.166 µM (active) | 0.358 µM (active) | 0.304 µM (active) | 0.248 µM (active) | 0.448 µM (active) | 1.04 µM (active) | 0.239 µM (active) | 0.18 µM (active) | 0.724 µM (active) |  | 0.328 µM (active) | 0.367 µM (active) | 0.475 µM (active) | 0.269 µM (active) | 0.577 µM (active) |  | 0.337 µM (active) |
